Target: T1, Peroxisome proliferator-activated receptor alpha (Homo sapiens, UniProt Q07869)
T1 sequence (Q07869 whole entry): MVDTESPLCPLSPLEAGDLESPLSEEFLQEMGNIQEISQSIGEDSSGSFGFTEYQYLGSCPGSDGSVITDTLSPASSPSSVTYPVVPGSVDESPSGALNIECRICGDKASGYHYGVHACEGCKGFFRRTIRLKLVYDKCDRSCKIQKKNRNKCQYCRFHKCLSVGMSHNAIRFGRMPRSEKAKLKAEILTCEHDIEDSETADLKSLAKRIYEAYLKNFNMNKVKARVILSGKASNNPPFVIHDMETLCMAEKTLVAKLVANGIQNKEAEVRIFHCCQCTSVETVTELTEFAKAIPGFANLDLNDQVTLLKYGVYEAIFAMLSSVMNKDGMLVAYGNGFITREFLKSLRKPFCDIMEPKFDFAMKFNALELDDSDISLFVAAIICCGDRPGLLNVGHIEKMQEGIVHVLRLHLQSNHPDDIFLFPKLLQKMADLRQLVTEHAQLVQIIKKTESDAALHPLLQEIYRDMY
Assay: Inhibition of PPARalpha receptor

CCC(=O)NC[C@H](Cc1ccc(OCCc2nc(-c3ccccc3)oc2C)cc1)N/C(C)=C\C(=O)c1ccc(C(F)(F)F)cc1
IC50: 240 nM

Source: ChEMBL document CHEMBL1138491, “An innovative method to study target protein-drug interactions by mass spectrometry” (J Med Chem, 2009)
